Data published in ChEMBL document CHEMBL1649551, “Antifungal activity of tamoxifen: in vitro and in vivo activities and mechanistic characterization” (2009).
Converted amounts (≈) assume the structure as drawn. The source made the active and inactive calls. No cut-off for these calls is given here.

Tests used:
[1] = target: Calmodulin (Saccharomyces cerevisiae S288c) (UniProt P06787); test: Inhibition of Myo2-GFP binding to Saccharomyces cerevisiae BY4741 calmodulin at 50 ug/ml by Western blot analysis
Chain of Calmodulin (Saccharomyces cerevisiae S288c) (P06787 whole entry): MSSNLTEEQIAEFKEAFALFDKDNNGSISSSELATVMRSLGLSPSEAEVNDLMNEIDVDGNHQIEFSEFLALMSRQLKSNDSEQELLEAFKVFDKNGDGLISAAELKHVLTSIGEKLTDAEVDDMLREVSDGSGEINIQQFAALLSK

[2] = test system: Candida dubliniensis; test: Antifungal activity against Candida dubliniensis CD1 after 24 hrs by CLSI method; format: functional; conditions: CD1, 24 h
[3] = test system: Candida albicans; test: Antifungal activity against Candida albicans ATCC 90028 after 24 hrs by CLSI method; format: functional; conditions: ATCC 90028, 24 h
[4] = test system: Cryptococcus neoformans; test: Antifungal activity against Cryptococcus neoformans NYS3-81 after 24 hrs by CLSI method; format: functional; conditions: NYS3-81, 24 h
[5] = test system: Candida tropicalis; test: Antifungal activity against Candida tropicalis MR064-H after 24 hrs by CLSI method; format: functional
[6] = test system: Candida albicans; test: Antifungal activity against Candida albicans SC5314 after 24 hrs by CLSI method; format: functional; conditions: SC5314, 24 h
[7] = test system: Saccharomyces cerevisiae; test: Antifungal activity against Saccharomyces cerevisiae BY4741 after 24 hrs by CLSI method; format: functional; conditions: BY4741, 24 h
[8] = test system: Nakaseomyces glabratus; test: Antifungal activity against Candida glabrata MR084-G12 after 24 hrs by CLSI method; format: functional; conditions: MR084-G12, 24 h
[9] = test system: Candida parapsilosis; test: Antifungal activity against Candida parapsilosis R058-G12 after 24 hrs by CLSI method; format: functional; conditions: Lodderomyces parapsilosis, R058-G12, 24 h
[10] = test system: Cryptococcus neoformans; test: Antifungal activity against Cryptococcus neoformans KN99alpha after 24 hrs by CLSI method; format: functional
[11] = test system: Saccharomyces cerevisiae; test: Antifungal activity against Saccharomyces cerevisiae BY4741 assessed as inhibition fungal bud formation at 8 ug/ml; format: functional, organism-based
[12] = test system: Saccharomyces cerevisiae; test: Antifungal activity against Saccharomyces cerevisiae BY4741 expressing CMD1 at 62 to 125 ug/mL after 3 days by photographic analysis; format: functional, organism-based
[13] = test system: Saccharomyces cerevisiae; test: Antifungal activity against Saccharomyces cerevisiae BY4741 at 8 ug/ml by alexa fluor-phalloidin staining; format: functional, organism-based
[14] = test system: Candida albicans; test: Antifungal activity against Candida albicans SC5314 at 16 ug/ml after 2 hrs by alexa fluor-phalloidin staining; format: functional, organism-based
[15] = test system: Candida albicans; test: Antifungal activity against Candida albicans SC5314 infected in BALB/c mouse assessed as fungal count per gram of kidney at 200 mg/kg, po administered for 7 days prior to fungal infection; format: functional
[16] = test system: Saccharomyces cerevisiae; test: Antifungal activity against Saccharomyces cerevisiae BY4741 expressing PKC1 at 62 to 125 ug/mL after 3 days by photographic analysis; format: functional, organism-based
[17] = test system: Saccharomyces cerevisiae; test: Antifungal activity against Saccharomyces cerevisiae BY4741 assessed as appearance of unbudded cells with more than one nucleus at 8 ug/ml; format: functional

Row | inhibition [1] | MIC [2] [mg/L] | MIC [3] [mg/L] | MIC [4] [mg/L] | MIC [5] [mg/L] | MIC [6] [mg/L] | MIC [7] [mg/L] | MIC [8] [mg/L] | MIC [9] [mg/L] | MIC [10] [mg/L] | SMILES | Activity [11] | Activity [12] | Activity [13] | Activity [14] | log10cfu [15] | Activity [16] | Activity [17] [%]
1 | Active |  |  |  |  |  |  |  |  |  | CN1CCN(CCCN2c3ccccc3Sc3ccc(Cl)cc32)CC1 |  |  |  |  |  |  | 
2 |  | 32 (≈ 78.8 µM) | > 64 | 64 (≈ 158 µM) | 64 (≈ 158 µM) | 32 (≈ 78.8 µM) | 18 (≈ 44.3 µM) | 32 (≈ 78.8 µM) | 64 (≈ 158 µM) | 64 (≈ 158 µM) | CCN(CC)CCOc1ccc(C(=C(Cl)c2ccccc2)c2ccccc2)cc1 [CLOMIPHENE] |  |  |  |  |  |  | 
3 | Active | 16 (≈ 43.1 µM) | 32 (≈ 86.1 µM) | 64 (≈ 172 µM) | 32 (≈ 86.1 µM) | 32 (≈ 86.1 µM) | 12 (≈ 32.3 µM) | 8 (≈ 21.5 µM) | 64 (≈ 172 µM) | 64 (≈ 172 µM) | CC/C(=C(\c1ccccc1)c1ccc(OCCN(C)C)cc1)c1ccccc1 [TAMOXIFEN] | Active | Active | Active | Active | 1.5 | Active | 15
